The source made the active and inactive calls. The calls are words filed in the database; no cut-off is given here.
Assays:
Assay type in all cases: functional, cell-based
[1] = system: A2780; assay: Cytotoxicity against human A2780 cells assessed as reduction in cell viability by MTT assay
[2] = system: L5178Y; assay: Cytotoxicity against mouse L5178Y cells assessed as reduction in cell viability by MTT assay
[3] = system: A2780; assay: Cytotoxicity against human A2780 cells assessed as reduction in cell viability at 10 uM by MTT assay
[4] = system: L5178Y; assay: Cytotoxicity against mouse L5178Y cells assessed as reduction in cell viability at 10 uM by MTT assay

`C[C@@H](O)[C@@]12SS[C@]3(C(=O)N1C)[C@@H](O)C1(C45c6ccccc6N[C@@H]4N4C(=O)[C@]6([C@@H](C)O)SS[C@]4(C(=O)N6C)[C@H]5O)c4ccccc4N[C@@H]1N3C2=O` (stereo not given in full) gave an IC50 [1] of 3.5 µM and an IC50 [2] of 0.1 µM.

With `CC[C@H](C)[C@H]1NC(=O)[C@@H](CC(C)C)NC(=O)CNC(=O)CCNC(=O)[C@@H](Cc2c[nH]c3ccccc23)NC(=O)[C@H](C(C)C)NC(=O)[C@@H]([C@@H](C)CC)NC1=O` the Activity [3] was “inactive” and the Activity [4] was “inactive”.

In the case of `CCC/C=C/CCC(=O)[C@]1(O)C(=O)N[C@@H](C)[C@@H]1O`, the Activity [3] is reported as “inactive” and the Activity [4] is reported as “inactive”.

`O=C1OC(O)C=C1O` (stereo not given) was tested, and the Activity [3] was “inactive” and the Activity [4] was “inactive”.

With `CS[C@@]1(Cc2c[nH]c3ccccc23)NC(=O)[C@@](SC)(C(C)O)NC1=O` (stereo not given in full) the Activity [3] was “inactive” and the Activity [4] was “inactive”.

With `C/C=C/C=C\[C@@H](O)[C@H]1CCC(=O)O1` the Activity [3] was “inactive” and the Activity [4] was “inactive”.

For `CC(C)C[C@H]1NC(=O)CNC(=O)CCNC(=O)[C@@H](Cc2c[nH]c3ccccc23)NC(=O)[C@H](C(C)C)NC(=O)[C@H](C(C)C)NC(=O)[C@H](C(C)C)NC1=O`, the Activity [3] was “inactive” and the Activity [4] was “inactive”.

`CC[C@H](C)[C@H]1NC(=O)[C@@H](CC(C)C)NC(=O)CNC(=O)CCNC(=O)[C@@H](Cc2c[nH]c3ccccc23)NC(=O)[C@H](C(C)C)NC(=O)[C@H](C(C)C)NC1=O` gave an IC50 [2] of 4.1 µM.

Source: ChEMBL document CHEMBL4385649, “Cyclic heptapeptides from the soil-derived fungus Clonostachys rosea” (Bioorg Med Chem, 2019)
